Source: patent US20240336606A1 (Suzhou Zelgen Biopharmaceuticals Co., Ltd., priority 2020, published 2024)

What was measured:
[1] = biological target: T1, binding of KRAS^G12C to SOS1 (Homo sapiens, UniProt Q07889); experiment: Inhibition of the binding of KRAS^G12C to SOS1; settings: Tag1-SOS1 / Tag2-KRAS^G12C, 2 h incubation at room temperature; read-out: IC50 (nM), inhibitory activity on the binding of KRAS^G12C to SOS1
T1 construct: Tag1 (unspecified)
T1 sequence (Q07889 1-1333): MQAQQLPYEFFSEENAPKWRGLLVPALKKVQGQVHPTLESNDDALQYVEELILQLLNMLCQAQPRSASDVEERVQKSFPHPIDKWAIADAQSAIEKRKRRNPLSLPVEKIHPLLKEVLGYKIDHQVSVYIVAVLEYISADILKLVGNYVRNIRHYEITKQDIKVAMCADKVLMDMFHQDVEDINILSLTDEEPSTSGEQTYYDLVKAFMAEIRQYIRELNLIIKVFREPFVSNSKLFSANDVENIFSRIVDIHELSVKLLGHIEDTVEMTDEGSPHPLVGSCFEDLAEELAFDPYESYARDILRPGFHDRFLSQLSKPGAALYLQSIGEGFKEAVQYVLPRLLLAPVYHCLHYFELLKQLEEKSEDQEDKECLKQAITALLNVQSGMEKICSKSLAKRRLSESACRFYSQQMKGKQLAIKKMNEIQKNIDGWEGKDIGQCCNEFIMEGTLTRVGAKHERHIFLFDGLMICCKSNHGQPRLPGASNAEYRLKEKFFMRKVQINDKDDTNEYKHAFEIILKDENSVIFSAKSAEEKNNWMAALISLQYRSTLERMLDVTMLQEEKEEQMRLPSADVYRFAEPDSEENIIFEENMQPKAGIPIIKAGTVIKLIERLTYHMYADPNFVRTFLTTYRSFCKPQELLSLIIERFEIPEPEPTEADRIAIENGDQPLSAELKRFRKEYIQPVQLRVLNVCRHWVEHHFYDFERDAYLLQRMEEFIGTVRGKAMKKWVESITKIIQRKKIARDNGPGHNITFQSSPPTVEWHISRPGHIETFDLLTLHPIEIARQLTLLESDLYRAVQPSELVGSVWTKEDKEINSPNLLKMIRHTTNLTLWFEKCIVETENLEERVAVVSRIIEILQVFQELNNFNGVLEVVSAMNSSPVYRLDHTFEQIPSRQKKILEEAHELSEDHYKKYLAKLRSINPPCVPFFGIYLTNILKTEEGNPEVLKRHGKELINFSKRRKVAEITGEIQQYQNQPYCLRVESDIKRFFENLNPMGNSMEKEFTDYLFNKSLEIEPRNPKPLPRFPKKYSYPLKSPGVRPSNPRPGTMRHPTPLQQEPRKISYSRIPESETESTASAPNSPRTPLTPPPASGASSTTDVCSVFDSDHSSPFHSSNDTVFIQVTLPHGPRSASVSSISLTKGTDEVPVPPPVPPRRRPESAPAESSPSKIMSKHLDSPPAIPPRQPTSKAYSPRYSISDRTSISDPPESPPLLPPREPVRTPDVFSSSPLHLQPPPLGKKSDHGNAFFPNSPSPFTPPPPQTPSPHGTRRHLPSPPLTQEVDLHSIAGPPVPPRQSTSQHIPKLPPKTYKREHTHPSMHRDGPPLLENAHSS
Procedure, shortened: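 Tag1-SOS1 and Tag2-KRAS^G12C mixed with serially diluted compound (final 0.25% DMSO), then anti-Tag1-Tb3+ and anti-Tag2-XL665 added for 2 h at room temperature. IC50 from curve fit of the TR-FRET signal.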

H358 cells = experiment: Inhibition of H358 cell proliferation (CellTiter-Glo 3D, 7 days); assay type: cell-based; settings: Homo sapiens, 168 h, NCI-H358, 7 days, read-out: IC50 (nM), inhibitory activity on H358 cell proliferation
Experimental: • (a) The cells were thawed in T75 cell culture flasks:
• (b) When 80-90% cell confluence was achieved, the cells were passaged.
The diluted test compounds were added to a 384-well cell culture plate using a nanoliter pipetting system, and duplicate wells were set. An equal volume of medium was added to the positive control group; an equal volume of DMSO was added to the negative control group. The plate was centrifuged at 1000 rpm at room temperature for 1 min.
The cells were inoculated into a) 384-well culture plate, an equal volume of cells was added to the negative control group, and only an equal volume of medium was added to the positive control group. The plate was centrifuged at 1000 rpm at room temperature for 1 min. The final concentration of DMSO in the final compounds was 0.5%. The plate was incubated in a thermostatic incubator at 37° C. with 5% CO2 for 7 days.
CellTiter-Glo® 3D was added to b) 384-well cell culture plate at 20 μL/well. The plate was shaken at 320 rpm in the dark for 20 min, and incubated at room temperature in the dark for 2 h. The luminescence values were read using an Envision multi-mode microplate reader.
The inhibition rates of the compounds at different concentrations were calculated in Excel, and then inhibition curves were plotted and relevant parameters including minimum inhibition rate, maximum inhibition rate and IC50 were calculated using GraphPad Prism software.

**Q.** How did the IC50 [1] turn out when `COc1cc2nc(C)nc(N[C@H](C)c3cc(N)cc(C(F)(F)F)c3)c2cc1OCCOC1COC1` [Example 44, (R)—N-(1-(3-Amino-5-(trifluoromethyl)phenyl)ethyl)-7-methoxy-2-methyl-6-(2-(oxetan-3-yloxy)ethoxy)quinazolin-4-amine] was run?
**A.** Its IC50 is 4.4 nM.

**Q.** And the IC50 (H358 cells)?
**A.** The IC50 was 25 nM.

**Q.** `COCCOc1cc2c(N[C@H](C)c3cc(N)cc(C(F)(F)C(C)(C)O)c3)nc(C)nc2cc1OC` [Example 74] was tested. Which IC50 [1] did it give?
**A.** The IC50 was 3.1 nM.

**Q.** And the IC50 (H358 cells)?
**A.** The IC50 was 6.5 nM.

**Q.** Which results are given for `COCCOc1cc2c(N[C@H](C)c3cc(C(F)(F)C(C)(C)O)ccc3F)nc(C)nc2cc1OC` [Example 79, (R)-1,1-Difluoro-1-(4-fluoro-3-(1-((7-methoxy-6-(2-methoxyethoxy)-2-methylquinazolin-4-yl)amino)ethyl)phenyl)-2-methylpropan-2-ol]?
**A.** IC50 [1]: 19 nM; IC50 (H358 cells): 419 nM

**Q.** Which results are given for `COCCOc1cc2c(N[C@H](C)c3cc(F)cc(C(F)(F)C(C)(C)O)c3)nc(C)nc2cc1OC` [Example 80, (R)-1,1-Difluoro-1-(3-fluoro-5-(1-((7-methoxy-6-(2-methoxyethoxy)-2-methylquinazolin-4-yl)amino)ethyl)phenyl)-2-methylpropan-2-ol]?
**A.** IC50 [1]: 6.2 nM; IC50 (H358 cells): 53 nM

**Q.** For `COc1cc2nc(C)nc(N[C@H](C)c3cccc(C(F)(F)C(C)(C)O)c3F)c2cc1OCCOC1CC1` [Example 93, (R)-1-(3-(1-((6-(2-Cyclopropyloxyethoxy)-7-methoxy-2-methylquinazolin-4-yl)amino)ethyl)-2-fluorophenyl)-1,1-difluoro-2-methylpropan-2-ol], which IC50 (H358 cells) is on record?
**A.** The IC50 was 40.9 nM.

**Q.** Which IC50 (H358 cells) does the source give for `[2H]C([2H])([2H])Oc1cc2nc(C)nc(N[C@H](C)c3cccc(C(F)(F)C(C)(C)O)c3F)c2cc1OCCOC` [Example 97, (R)-1,1-Difluoro-1-(2-fluoro-3-(1-((7-deuteratedmethoxy-6-(2-methoxyethoxy)-2-methylquinazolin-4-yl)amino)ethyl)phenyl)-2-methylpro pan-2-ol] here?
**A.** Its IC50 is 15.5 nM.

**Q.** `CCOc1cc2nc(C)nc(N[C@H](C)c3cccc(C(F)(F)C(C)(C)O)c3F)c2cc1OCCOC` [Example 98, (R)-1-(3-(1-((7-Ethoxy-6-(2-methoxyethoxy)-2-methylquinazolin-4-yl)amino)ethyl)-2-fluor ophenyl)-1,1-difluoro-2-methylpropan-2-ol] was tested. Which IC50 (H358 cells) did it give?
**A.** Its IC50 is 12.8 nM.

**Q.** With `COCCOc1cc2c(N[C@H](C)c3cccc(C(F)(F)C(C)(C)O)c3F)nc(C)nc2cc1OC(C)C` [Example 99, (R)-1,1-Difluoro-1-(2-fluoro-3-(1-((7-isopropoxy-6-(2-methoxyethoxy)-2-methylquinazolin-4-yl)amino)ethyl)phenyl)-2-methylpropan-2-ol] as the compound, how does the IC50 (H358 cells) read?
**A.** Its IC50 is 20 nM.

**Q.** For `COCCOc1cc2c(N[C@H](C)c3cccc(C(F)(F)C(C)(C)O)c3F)nc(C)nc2cc1-c1cccnc1` [Example 101, (R)-1,1-Difluoro-1-(2-fluoro-3-(1-((6-(2-methoxyethoxy)-2-methyl-7-(pyridin-3-yl)quinazolin-4-yl)amino)ethyl)phenyl)-2-methylpropyl-2-ol], which IC50 (H358 cells) is on record?
**A.** The IC50 was 15.5 nM.

**Q.** `COCCOc1cc2c(N[C@H](C)c3cccc(C(F)(F)C(C)(C)O)c3F)nc(C)nc2cc1-c1cnn(C)c1` [Example 102, (R)-1,1-Difluoro-1-(2-fluoro-3-(1-((6-(2-methoxyethoxy)-2-methyl-7-(1-methyl-1H-pyrazol-4-yl)quinazolin-4-yl)amino)ethyl)phenyl)-2-methylpropyl-2-ol] was tested. Which IC50 (H358 cells) did it give?
**A.** Its IC50 is 13.3 nM.

**Q.** How did the IC50 (H358 cells) turn out when `COCCOc1cc2c(N[C@H](C)c3cccc(C(F)(F)C(C)(C)O)c3F)nc(C)nc2cc1OC1COC1` [Example 103] was run?
**A.** Its IC50 is 23.5 nM.

**Q.** With `COCCOc1cc2nc(C)nc(N[C@H](C)c3cc(N)cc(C(F)(F)C(C)(C)O)c3)c2cc1OCCOC` [Example 113, (R)-1-(3-Amino-5-(1-((6,7-bis(2-methoxyethoxy)-2-methylquinazolin-4-yl)amino)ethyl)phenyl)-1,1-difluoro-2-methylpropan-2-ol] as the compound, how does the IC50 (H358 cells) read?
**A.** Its IC50 is 10.4 nM.

**Q.** With `COc1cc2nc(C)nc(N[C@H](C)c3cc(N)cc(C(F)(F)C(C)(C)O)c3)c2cc1OCCOc1cccnc1` [Example 115, (R)-1-(3-Amino-5-(1-(7-methoxy-2-methyl-6-(2-(pyridine-3-oxy)ethoxy)quinazolin-4-yl)amino)ethyl)phenyl-1,1-difluoro-2-methylpropan-2-ol] as the compound, how does the IC50 (H358 cells) read?
**A.** Its IC50 is 9.92 nM.

**Q.** `COc1cc2nc(C)nc(N[C@H](C)c3cc(N)cc(C(F)(F)C(C)(C)O)c3)c2cc1OCCOC1CC1` [Example 116, (R)-1-(3-Amino-5-(1-((6-(2-cyclopropoxyethoxy)-7-methoxy-2-methylquinazolin-4-yl)amino)ethyl)phenyl)-1,1-difluoro-2-methylpropyl-2-ol] was tested. Which IC50 (H358 cells) did it give?
**A.** The IC50 was 4.29 nM.

**Q.** With `COc1cc2nc(C)nc(N[C@H](C)c3cc(N)cc(C(F)(F)C(C)(C)O)c3)c2cc1OCCOC1COC1` [Example 117, (R)-1-(3-Amino-5-(1-((7-methoxy-2-methyl-6-(2-(oxetan-3-yloxy)ethoxy)quinazolin-4-yl)amino)ethyl)phenyl)-1,1-difluoro-2-methylpropyl-2-ol] as the compound, how does the IC50 (H358 cells) read?
**A.** The IC50 was 2.65 nM.

**Q.** With `COc1cc2nc(C)nc(N[C@H](C)c3cc(N)cc(C(F)(F)C(C)(C)O)c3)c2cc1OCCOC1CC1(F)F` (some centres unmarked) [Example 118] as the compound, how does the IC50 (H358 cells) read?
**A.** Its IC50 is 2.65 nM.

**Q.** How did the IC50 (H358 cells) turn out when `COCCOCCOc1cc2c(N[C@H](C)c3cc(N)cc(C(F)(F)C(C)(C)O)c3)nc(C)nc2cc1OC` [Example 119, (R)-1-(3-Amino-5-(1-(7-methoxy-6-(2-(2-methoxyethoxy)ethoxy)-2-methylquinazolin-4-yl)amino)ethylphenyl)-1,1-difluoro-2-methylpropan-2-ol] was run?
**A.** The IC50 was 11.5 nM.

**Q.** With `COCC(COC)Oc1cc2c(N[C@H](C)c3cc(N)cc(C(F)(F)C(C)(C)O)c3)nc(C)nc2cc1OC` [Example 122] as the compound, how does the IC50 (H358 cells) read?
**A.** Its IC50 is 15.6 nM.

**Q.** `COCCOc1cc2c(N[C@H](C)c3cc(N)cc(C(F)(F)C(C)(C)O)c3)nc(C)nc2cc1-c1cc[nH]n1` [Example 123, (R)-1-(3-Amino-5-(1-((6-(2-methoxyethoxy)-2-methyl-7-(1H-pyrazolyl-3-yl)quinazolin-4-yl)amino)ethyl)phenyl)-1,1-difluoro-2-methylpropan-2-ol] was tested. Which IC50 (H358 cells) did it give?
**A.** Its IC50 is 32.8 nM.

**Q.** For `C#Cc1cc2nc(C)nc(N[C@H](C)c3cccc(C(F)(F)C(C)(C)O)c3F)c2cc1OCCOC` [Example 153, (R)-1-(3-(1-(7-ethynyl-6-(2-methoxyethoxy)-2-methylquinazoline-4-amino)ethyl)-2-fluorophenyl)-1,1-difluoro-2-methylpropan-2-ol], which IC50 (H358 cells) is on record?
**A.** The IC50 was 34.7 nM.

**Q.** With `C#Cc1cc2nc(C)nc(N[C@H](C)c3cccc(C(F)(F)C(C)(C)O)c3F)c2cc1OCCOC1COC1` [Example 157, (R)-1-(3-(1-((7-Ethynyl-2-methyl-6-(2-(oxetan-3-yloxy)ethoxy)quinazolin-4-yl)amino)ethyl)-2-fluorophenyl)-1,1-difluoro-2-methylpropan-2-ol] as the compound, how does the IC50 (H358 cells) read?
**A.** The IC50 was 15.8 nM.

**Q.** `C#Cc1cc2nc(C)nc(N[C@H](C)c3cc(N)cc(C(F)(F)C(C)(C)O)c3)c2cc1OCCOC` [Example 163, (R)-1-(3-Amino-5-(1-((7-ethynyl-6-(2-methoxyethoxy)-2-methylquinazolin-4-yl)amino)ethyl)phenyl)-1,1-difluoro-2-methylpropan-2-ol] was tested. Which IC50 (H358 cells) did it give?
**A.** The IC50 was 14.5 nM.
